Laboratory results published in ChEMBL document CHEMBL5257160, “Siderophore conjugates to combat antibiotic-resistant bacteria” (2023).
In brackets after ≈: the same amount, converted by molar mass. Each block holds one compound with its values, some of them ahead of it. Numbered stars: 1 amine (or outer) side, 2 acyl side, 3 side chain; on linkers, the order of the positions; unused ones are H or OH. Square brackets hold non-standard residues; d marks the D form. Peptide text beside a SMILES is read from it. X1 = Cn1c(=O)n([C@@H]2S[C@H]([C@H](O)[C@@H](N[*:1])C(=O)[*:2])[C@@H](O)[C@H]2O)cc/c1=N\C(N)=O; Orn(N5-OH,N5-Ac) = CC(=O)N(O)CCC[C@H](N)C(=O)O

Tests used:
Type in all cases: functional
Streptococcus pneumoniae = assay: Antibacterial activity against Streptococcus pneumoniae assessed as inhibition of bacterial growth
Yersinia enterocolitica = assay: Antibacterial activity against Yersinia enterocolitica assessed as inhibition of bacterial growth in iron depleting media incubated for 20 hrs by CLSI protocol based assay
Acinetobacter baumannii = assay: Antibacterial activity against carbapenem - resistant Acinetobacter baumannii
Enterobacter sp. = assay: Antibacterial activity against Enterobacter sp. assessed as inhibition of bacterial growth
Proteus sp. = assay: Antibacterial activity against Proteus sp. assessed as inhibition of bacterial growth; conditions: Proteus sp. (in: enterobacteria)
[1] = test system: Stenotrophomonas maltophilia; assay: Antibacterial activity against Stenotrophomonas maltophilia assessed as inhibition of bacterial growth
Pseudomonas aeruginosa = assay: Antibacterial activity against Pseudomonas aeruginosa assessed as inhibition of bacterial growth
Enterobacteriaceae = assay: Antibacterial activity against Enterobacteriaceae assessed as inhibition of bacterial growth
Escherichia coli = assay: Antibacterial activity against Escherichia coli assessed as inhibition of bacterial growth
Serratia sp. = assay: Antibacterial activity against Serratia sp. assessed as inhibition of bacterial growth; conditions: Serratia sp. (in: enterobacteria)
Klebsiella sp. = assay: Antibacterial activity against Klebsiella sp. assessed as inhibition of bacterial growth

MIC (Streptococcus pneumoniae): 0.00196 µg/mL (≈ 0.00172 µM)
MIC (Yersinia enterocolitica): 0.0078 µg/mL (≈ 0.00683 µM)
SMILES: CC(=O)N(O)CCC[C@H](NC(=O)[C@H](CCCN(O)C(C)=O)NC(=O)[C@@H](N)CCCN(O)C(C)=O)C(=O)N[C@@H](CCC(=O)NCCNC(=O)CC[C@@H](NC(=O)c1ccc(N(C)Cc2cnc3nc(N)nc(N)c3n2)cc1)C(=O)O)C(=O)O

SMILES: C[C@@H]1S[C@@H]2[C@H](NC(=O)/C(=N/OC(C)(C)C(=O)O)c3csc(N)n3)C(=O)N2C(C(=O)[O-])=C1C[N+]12CCC(CNC(=O)c3ccc(O)c(O)c3Cl)(CC1)C2
MIC (Acinetobacter baumannii): ≤ 0.03 µg/mL

MIC90 (Enterobacter sp.): 8 µg/mL (≈ 12.6 µM)
MIC90 (Proteus sp.): 0.12 µg/mL (≈ 0.19 µM)
MIC90 [1]: 0.25 µg/mL (≈ 0.395 µM)
SMILES: CC(C)(O/N=C(\C(=O)N[C@@H]1C(=O)N(S(=O)(=O)O)C1CNC(=O)NCc1cc(=O)c(O)cn1O)c1csc(N)n1)C(=O)O (some centres undefined)

MIC (Pseudomonas aeruginosa): 2 µg/mL (≈ 3.96 µM)
MIC (Enterobacteriaceae): ≤ 1 µg/mL
SMILES: C[C@H]1[C@H](NC(=O)/C(=N\OCc2cc(=O)c(O)cn2O)c2csc(N)n2)C(=O)N1OS(=O)(=O)O

MIC (Streptococcus pneumoniae): 0.01 µg/mL (≈ 0.0101 µM)
MIC (Escherichia coli): 0.005 µg/mL (≈ 0.00504 µM)
SMILES: CC(=O)N(O)CCC[C@H](NC(=O)[C@H](CCCN(O)C(C)=O)NC(=O)[C@@H](N)CCCN(O)C(C)=O)C(=O)N[C@@H](CO)C(=O)N[C@@H](C(=O)O)[C@@H](O)[C@H]1S[C@@H](n2cc/c(=N\C(N)=O)n(C)c2=O)[C@H](O)[C@@H]1O (H-[Orn(N5-OH,N5-Ac)][Orn(N5-OH,N5-Ac)][Orn(N5-OH,N5-Ac)]S[X1]-OH)

MIC90 (Serratia sp.): 0.25 µg/mL (≈ 0.332 µM)
MIC90 (Klebsiella sp.): 0.25 µg/mL (≈ 0.332 µM)
MIC90 (Enterobacter sp.): 0.25 µg/mL (≈ 0.332 µM)
MIC90 (Escherichia coli): 0.25 µg/mL (≈ 0.332 µM)
SMILES: CC(C)(O/N=C(\C(=O)N[C@@H]1C(=O)N2C(C(=O)[O-])=C(C[N+]3(CCNC(=O)c4ccc(O)c(O)c4Cl)CCCC3)CS[C@H]12)c1csc(N)n1)C(=O)O [CEFIDEROCOL]
